Results taken from PMC10895668, “Lead Optimization of the 5-Phenylpyrazolopyrimidinone NPD-2975 toward Compounds with Improved Antitrypanosomal Efficacy” (Journal of Medicinal Chemistry, 2024).
Where a name gives a salt, the structure may show the parent alone. Read-outs that look alike come from different tables or passages of the source.

Tests used:
T. b. brucei [1] = conditions: 10 mg/kg IP s.i.d. for 5 days, positive control, n = 3
Description: (§1) The antiparasitic assays were carried out exactly as described in Blaazer et al.([39]) Metabolic stability, pharmacokinetics, acute mouse infection model results were collected as described previously.[21] All animal experiments were conducted in compliance with institutional guidelines and following approval by the Ethical Committee of the University of Antwerp, Belgium [UA-ECD 2014–96]. Female Swiss mice (15–20 g), were purchased from Janvier (Le Genest Saint Isle, France). […] Animals were treated PO b.i.d. for 5 days at 25 and 50 mg/kg 31c. For the SL-RNA qPCR experiments blood was collected sublingually and subjected to erythrocyte lysis before extracting RNA with the QIAamp RNA Blood Mini kit (Qiagen). […] Small pieces of fat, brain, and spleen tissue were excised and immediately transferred to RNA later (Qiagen) and incubated overnight at 4 °C. RNA extraction was performed as instructed in the RNeasy Mini Plus Kit manual (Qiagen). The one-step SensiFAST SYBR Hi-Rox PCR kit (Bioline USA Inc., via Gentaur Belgium BVBA, Kampenhout, Belgium) was used for the PCR with the following forward and reverse primers, respectively 5′-[…]-3′ and 5′-[…]-3′. An initial activation step of 10 min at 45 °C and 10 min at 95 °C was used, followed by the amplification step for 40 cycles (15 s at 95 °C, 15 s 50 °C and 15 s at 60 °C). At last, the melting curves were generated with an increment of 0.3 °C (15 s at 95 °C 1 min at 45 °C and 15 s at 95 °C). The PCR was run on the Step One Plus real-time PCR system (Applied Biosystems, California, USA). An additional qPCR was performed with the mouse housekeeping gene Eef2 to confirm successful RNA extraction.
Mice were allocated to groups of three and were infected by IP injection of 10^4T. brucei Squib 427 trypomastigotes. […] Suramin was included as a reference for T. brucei and injected IP s.i.d. for 5 days at 10 mg/kg. A PEG400 vehicle control group was also included. […] The first treatment was given 30 min prior to the artificial infection. Drug efficacy was evaluated by microscopic determination of the parasitemia in a blood drop collected from the tail vein at several time points until 63 days postinfection (dpi). […] An SL-RNA qPCR assay was performed in all surviving animals to confirm parasitological cure. For the SL-RNA qPCR, peripheral blood was subjected to erythrocyte lysis before extracting RNA with the QIAamp RNA Blood Mini kit (Qiagen). […] Small pieces of fat, brain, and spleen tissues were excised and immediately transferred to RNA later (Qiagen) and incubated overnight at 4 °C. RNA extraction was performed as instructed in the RNeasy Mini Plus Kit manual (Qiagen). […]

T. b. brucei [2] = assay: Trypanosoma susceptibility assay (resazurin viability); assay type: cell-based; conditions: for antitrypanosomal activity (in words): T. brucei in vitro; for potency lower compared to 31a: T. brucei, versus compound 31a; for decrease of antitrypanosomal activity compared with 2: T. b. brucei, versus compound 2
Description: as §1
In vitro experiments were carried out with the bloodstream form of the T. b. brucei Squib strain (suramin-sensitive). Parasites were routinely cultured in T25 culture flasks containing 10 mL of HMI-9 medium (Invitrogen) supplemented with 10% heat-inactivated fetal bovine serum (Life Technologies) and 2.5 μg/mL Geneticin (Life Technologies). MRC-5SV2 cells were cultured in MEM + Earl’s salts-medium, supplemented with 2 mM L-glutamine, 16.5 mM NaHCO3, and 5% inactivated fetal calf serum. All cultures and assays were conducted at 37 °C under an atmosphere of 5% CO2.
Parasites were counted in a KOVA counting chamber and diluted to 1.5 × 10^4 parasites/well of a 96-well plate (200 μL total volume), upon which the prediluted test compounds were added. Drug exposure covered a 72 h period without renewal of the culture medium. After 3 days of incubation, parasite growth was assessed fluorimetrically after addition of 50 μL of resazurin per well. After 6 h (T. b. rhodesiense) or 24 h (T. b. brucei) at 37 °C, fluorescence is measured (λex 550 nm, λem 590 nm). Parasite viability was assessed using the resazurin viability assay, and drug activity was calculated as percentage viability reduction compared to nontreated controls.

MRC-5 cells [3] = assay: MRC-5SV2 cytotoxicity assay; assay type: cell-based; conditions: Homo sapiens, MRC5, 72 h, read-out: pIC50 MRC-5 (converted)
Description: The synthesized analogues were tested against T. b. brucei, and inhibition of MRC-5 (human lung fibroblasts MRC-5SV40) cell proliferation was included as cytotoxicity control. […] Analogue 17 with an amino group instead of the carbonyl group was prepared to improve solubility for further modification. […] In vitro experiments were carried out with the bloodstream form of the T. b. brucei Squib strain (suramin-sensitive). […] All cultures and assays were conducted at 37 °C under an atmosphere of 5% CO2. […] Cell growth is compared to untreated-control wells (100% cell growth) and medium-control wells (0% cell growth). […] After 4 h at 37 °C, fluorescence is measured (λex 550 nm, λem 590 nm). The results are expressed as % reduction in cell growth/viability compared to control wells and an IC50 and an IC90 (50 and 90% inhibitory concentrations) are determined.

MRC-5 cells [4] = conditions: Figure 1; previously reported series ref 21; cited from earlier work
[5] = Trypanosoma brucei, 72 h, T. b. brucei Squib bloodstream form, 72 h exposure, mean ± SD, n ≥ 2, read-out: pIC50 T. brucei (converted)
[6] = cytotoxicity, 3 days incubation, mean ± SD, n ≥ 2
[7] = T. b. brucei Squib bloodstream form, 72 h exposure, mean ± SD, n ≥ 2

Row | Compound | IC50 (T. b. brucei [2]; [5]) [µM] | IC50 (MRC-5 cells [3]; [6]) [µM] | other results
1 | Cc1ccc(C(=O)Nc2ccc(S(=O)(=O)O)c3cc(S(=O)(=O)O)cc(S(=O)(=O)O)c23)cc1NC(=O)c1cccc(NC(=O)Nc2cccc(C(=O)Nc3cc(C(=O)Nc4ccc(S(=O)(=O)O)c5cc(S(=O)(=O)O)cc(S(=O)(=O)O)c45)ccc3C)c2)c1 [suramin, reference compound] |  |  | survival (T. b. brucei [1]): survived throughout the 60 days postinfection follow-up period without relapse
2 | COCCn1nc(C(C)C)c2nc(-c3ccc(F)cc3)[nH]c(=O)c21 [21d, 5-(4-Fluorophenyl)-3-isopropyl-1-(2-methoxyethyl)-1,6-dihydro-7H-pyrazolo[4,3-d]pyrimidin-7-one] | > 63.1 | > 63.1 | antitrypanosomal activity (in words) (T. b. brucei [2]): no antitrypanosomal activity at all
3 | 5-(4-Fluorophenyl)-3-isopropyl-1-(4-methoxyphenethyl)-1,6-dihydro-7H-pyrazolo[4,3-d]pyrimidin-7-one [21e] |  |  | IC50 (T. b. brucei [2]; read-out: IC50 against T. brucei): 3.2 µM
4 | CCc1n[nH]c2c(=O)[nH]c(-c3ccc(F)cc3)nc12 [31d, 3-Ethyl-5-(4-fluorophenyl)-1,6-dihydro-7H-pyrazolo[4,3-d]pyrimidin-7-one] | 0.398 | > 63.1 | 
5 | O=c1[nH]c(-c2ccc(F)cc2)nc2c(C3CCCCC3)n[nH]c12 [31b, 3-Cyclohexyl-5-(4-fluorophenyl)-1,6-dihydro-7H-pyrazolo[4,3-d]pyrimidin-7-one] |  | > 63.1 | potency lower compared to 31a (T. b. brucei [2]): 4 fold
6 | CC(C)c1nn(CCO)c2c(=O)[nH]c(-c3ccc(F)cc3)nc12 [compound 22, 5-(4-Fluorophenyl)-1-(2-hydroxyethyl)-3-isopropyl-1,6-dihydro-7H-pyrazolo[4,3-d]pyrimidin-7-one] | 0.631 | > 63.1 | IC50 (T. b. brucei [2]; Trypanosoma brucei, read-out: IC50 against T. brucei): 0.8 µM
7 | CC(C)c1nn(CCC(N)=O)c2c(=O)[nH]c(-c3ccc(F)cc3)nc12 [21f, 3-(5-(4-Fluorophenyl)-3-isopropyl-7-oxo-6,7-dihydro-1H-pyrazolo[4,3-d]pyrimidin-1-yl)propanamide] | > 63.1 | > 63.1 | antitrypanosomal activity (in words) (T. b. brucei [2]): no antitrypanosomal activity
8 | O=c1[nH]c(-c2ccc(F)cc2)nc2cn[nH]c12 [31f, 5-(4-Fluorophenyl)-1,6-dihydro-7H-pyrazolo[4,3-d]pyrimidin-7-one Formate] |  |  | IC50 (T. b. brucei [2]; Trypanosoma brucei, 72 h, read-out: pIC50 T. brucei (converted)): > 63.1 µM; IC50 (MRC-5 cells [3]): > 63.1 µM
9 | CC(C)c1nn(C(C)C)c2c(=O)[nH]c(-c3ccc(F)cc3)nc12 [21c, 5-(4-Fluorophenyl)-1,3-diisopropyl-1,6-dihydro-7H-pyrazolo[4,3-d]pyrimidin-7-one] | 6.31 | > 63.1 | decrease of antitrypanosomal activity compared with 2 (T. b. brucei [2]): ~100 fold
10 | O=c1[nH]c(-c2ccc(F)cc2)nc2c(-c3ccccc3)n[nH]c12 [compound 35, 5-(4-Fluorophenyl)-3-phenyl-1,6-dihydro-7H-pyrazolo[4,3-d]pyrimidin-7-one] | < 0.1 | > 63.1 | pIC50 T. brucei (T. b. brucei [2]; [7]): 7.3 ± 0.1; potency lower compared to 31a (T. b. brucei [2]): 4 fold
11 | Cc1n[nH]c2c(=O)[nH]c(-c3ccc(F)cc3)nc12 [31e, 5-(4-Fluorophenyl)-3-methyl-1,6-dihydro-7H-pyrazolo[4,3-d]pyrimidin-7-one] | 25.1 | > 63.1 | 
12 | CC(C)c1n[nH]c2c(=N)[nH]c(-c3ccc(F)cc3)nc12 [compound 17, 5-(4-Fluorophenyl)-3-isopropyl-1,6-dihydro-7H-pyrazolo[4,3-d]pyrimidin-7-imine] | > 10 | 25.1 | decrease of antitrypanosomal activity compared with 2 (T. b. brucei [2]): > 100 fold
13 | CC(C)c1[nH]nc2c(=O)n(C)c(-c3ccc(F)cc3)nc12 [compound 7, 5-(4-Fluorophenyl)-3-isopropyl-6-methyl-2,6-dihydro-7H-pyrazolo[4,3-d]pyrimidin-7-one] | > 10 | > 63.1 | decrease of antitrypanosomal activity compared with 2 (T. b. brucei [2]): > 100 fold
14 | CC(C)c1c2nc(-c3ccc(F)cc3)[nH]c(=O)c2nn1C [compound 15, 5-(4-Fluorophenyl)-3-isopropyl-2-methyl-2,6-dihydro-7H-pyrazolo[4,3-d]pyrimidin-7-one] | 1.58 | > 63.1 | decrease of antitrypanosomal activity compared with 2 (T. b. brucei [2]): 20 fold
15 | CC(C)c1n[nH]c2c(=O)[nH]c(Cc3ccccc3)nc12 [compound 1, reference compound] |  |  | MRC-5 pIC50 (MRC-5 cells [4]): < 4.2
16 | CCn1nc(C(C)C)c2nc(-c3ccc(F)cc3)[nH]c(=O)c21 [21a, 1-Ethyl-5-(4-fluorophenyl)-3-isopropyl-1,6-dihydro-7H-pyrazolo[4,3-d]pyrimidin-7-one] | 0.251 | > 63.1 | 
17 | CC(C)c1nn(C)c2c(=O)[nH]c(-c3ccc(F)cc3)nc12 [compound 11, 5-(4-Fluorophenyl)-3-isopropyl-1-methyl-1,6-dihydro-7H-pyrazolo[4,3-d]pyrimidin-7-one] | < 0.1 | > 63.1 | pIC50 T. brucei (T. b. brucei [2]; [7]): 7.1 ± 0.1
18 | CCCn1nc(C(C)C)c2nc(-c3ccc(F)cc3)[nH]c(=O)c21 [21b, 5-(4-Fluorophenyl)-3-isopropyl-1-propyl-1,6-dihydro-7H-pyrazolo[4,3-d]pyrimidin-7-one] | 0.158 | > 63.1 | 
